From patent US20190046600A1, “COMPOSITIONS AND USES THEREOF” (priority 2016, published 2019)
pIC50: −log10 of the molar value. Square brackets hold non-standard residues; d marks the D form. Ends that are not written are not given here. Peptide text beside a SMILES is read from it. Phe(4-guanidino) = N=C(N)Nc1ccc(C[C@H](N)C(=O)O)cc1; Abu(4-SO3H) = N[C@@H](CCS(=O)(=O)O)C(=O)O

How the values were obtained:
[1] = test system: NCI-H460 cells; assay: HILR-001 with or without 30 nM Olaparib on NCI-H460, alamarBlue and CellTiter-Glo time course; format: cell-based, human; conditions: HILR-001 as single agent, particularly evident at later time points
Method: At each time point cell viability was measured by two assay readouts, alamarBlue® and CellTiter-Glo. Conversion of alamarBlue® to a fluorescent product serves as a readout of the metabolic activity of cells, whereas CellTiter-Glo is based on quantification of the ATP present.
2) Cells were harvested and seeded into 96-well plates at 500 cells/well. 3) HILR-001 was made up from a 10 mM stock solution and added directly to cells in doubling dilutions starting at 200 μM. […] The total final DMSO concentration was 0.25%. 4) Cells were grown with compound for 24, 48, 72 or 96 hours at 37° C. 5% CO2 in a humidified atmosphere. 5) AlamarBlue® 10% (v/v) was then added and incubated for a further 4 hours, and fluorescent product detected using the BMG FLUOstar plate reader. 6) On duplicate plates the media was removed from the cells, CellTiter-Glo was diluted in PBS (1:10) and 100 μl added to the cells. 7) Plates were mixed on an orbital shaker for 2 minutes and incubated for a further 10 minutes at room temperature. Luminescent signal was then measured using the BMG FLUOstar plate reader.

[2] = test system: NCI-H460 cells; conditions: 96 h
Method: Methods measuring cell viability include the use of alamarBlue® cell viability reagent (Life Technologies, Inc.) (resazurin) with fluorescence detection.
1) NCI-H460 cells were grown in Ham's F12 media supplemented with 10% FBS. 2) Cells were harvested and seeded into 96-well plates at 500 cells/well. 3) Compounds were made up from stock solutions and added directly to cells in doubling dilutions starting at 200 μM. Final DMSO concentration was 0.2%. 4) Cells were grown with compound for 96 hours at 37° C. 5% CO2 in a humidified atmosphere. 5) A resazurin dye composition (AlamarBlue® cell viability reagent (Life Technologies, Inc.)) 10% (v/v) was then added and incubated for a further 4 hours, and fluorescent product detected using the BMG FLUOstar plate reader. 6) Media only background readings were subtracted before data were analysed using a 4-parameter logistic equation in GraphPad Prism.

[3] = test system: human cancer cell lines; conditions: cited from earlier work; for bio-activity of cyclic peptide (active / inactive): PRGPRP warhead combined with non-amphiphilic backbone
[4] = test system: NCI-H460 human non-small cell lung cancer cells; conditions: amphiphilic backbones of different length and composition; cited from earlier work
[5] = test system: NCI-H460 human non-small-cell lung cancer cells; assay: Cell survival with or without 2-deoxyglucose, alamarBlue; format: cell-based; conditions: combination with 3.125 mmol 2-DOG versus alone
Description: Since the compounds according to the invention appeared to be causing cell death by necrosis as a result of NAD/ATP depletion, it was hypothesised that their activity could be potentiated by administering the compounds with a glycolysis inhibitor. The cell killing ability of HILR-025 (SEQ ID NO: 15) and HILR-D-07 sodium salt (SEQ ID NO: 30) in the presence and absence of the glycolysis inhibitor 2-deoxyglucose (2-DOG) was therefore assayed.
NCI-H460 human non-small-cell lung cancer cells were contacted with HILR-025 or HILR-D-07 alone or in combination with 3.125 mmol 2-DOG and cell survival was determined using AlamaBlue® cell viability reagent (Life Technologies, Inc.) in accordance with the manufacturer's instructions.

[6] = test system: NCI H460 Human Non-small cell lung cancer; assay: Light microscopy of treated cell cultures; format: cell-based; conditions: versus DMSO control
Method: To investigate further the mechanism of action of the anionic warhead, cultures of NCI H460 Human Non-small cell lung cancer were exposed to HILR-025 and HILR-D-07 and observed using light microscopy. A comparative cell culture was treated with DMSO to provide a negative control.

[7] = test system: Lactate Dehydrogenase A [LDHA]; assay: LDH activity assay on lysates of treated NCI-H460 cells (Abcam ab102526); format: cell-based, human; conditions: NCI-H460 cells treated 24 h or 96 h, normalised to protein; read-out: IC50 for inhibiting the activity of LDH
Method: An LDH activity assay was conducted on samples derived from NCI-H460 cells treated with 2 test compounds (HILR-025 and HILR-030) for either 24h or 96h. […] Therefore a BCA assay was conducted to estimate the total amount of protein present in each LDH assay lysate and this was used to normalise the enzyme activity data. As an indication of cell viability, an Alamar blue assay was also carried out at both timepoints, to serve as an additional point of reference.
2) Cells were harvested and seeded into 96-well plates at either 500 cells/well (for the 96h timepoint) or 5000 cells/well for the 24h timepoint. […] 6) At the end of the assay (24 or 96h), Alamar blue 10% (v/v) was added to one set of plates, incubated for a further 4 hours, and fluorescent product detected using the BMG FLUOstar plate reader. […] 10) LDH activity was measured in the cleared lysates using an LDH activity kit (Abcam, ab102526). 11) After preparation of the LDH activity assay reactions, according to the manufacturer's instructions, absorbance at 450 nm was measured at the initial time to determine (A450)initial 12) Further absorbance readings were taken at 3 minute intervals for up to 15 minutes. […] 16) The LDH activity of each sample was determined by the following equation:
[formula] […] Protein content in remaining cleared lysates was determined using a BCA assay (ThermoScientific). • b. Data were analysed using GraphPad Prism. […]

Compound: CC(C)C[C@@H]1NC(=O)[C@H](C)NC(=O)[C@H](C(C)C)NC(=O)[C@@H]2CCCN2C(=O)[C@H](CCCNC(=N)N)NC(=O)[C@@H]2CCCN2C(=O)CNC(=O)[C@H](CCCNC(=N)N)NC(=O)[C@@H]2CCCN2C(=O)[C@H](CC(C)C)NC(=O)[C@H](C)NC(=O)[C@H](CC(C)C)NC(=O)[C@H](CCCCN)NC(=O)[C@H](CC(C)C)NC(=O)[C@H](C)NC(=O)[C@H](CC(C)C)NC(=O)[C@H](CCCCN)NC1=O [HILR-001] (cyclo(PRGPRPVALKLALKLAL))
- metabolic activity (alamarBlue) [1]: dose dependent decrease
- pIC50 [2]: 4.01
- selective killing of human cancer cell lines [3]: selectively killed a wide range of human cancer cell lines
- killing NCI-H460 cells (active / inactive) [4]: ACTIVE

Compound: Cyc-[PRGPRPVKLALKLALKLAL] (cyclic; cyclic peptide; (1)..(19) cyclic peptide) [THR52]
- killing NCI-H460 cells (active / inactive) [4]: INACTIVE

Compound: Cyc-[PRGPRPVKLALKLALKFP] (cyclic; cyclic peptide; (1)..(18) cyclic peptide) [THR53]
- selective killing of human cancer cell lines [3]: selectively killed a wide range of human cancer cell lines
- killing NCI-H460 cells (active / inactive) [4]: ACTIVE

Compound: CC(C)[C@@H]1NC(=O)[C@@H]2CCCN2C(=O)[C@H](CCCNC(=N)N)NC(=O)[C@@H]2CCCN2C(=O)CNC(=O)[C@H](CCCNC(=N)N)NC(=O)[C@@H]2CCCN2C(=O)[C@H](Cc2c[nH]c3ccccc23)NC(=O)[C@H](Cc2c[nH]c3ccccc23)NC(=O)[C@H](CCCNC(=N)N)NC(=O)[C@H](CCCNC(=N)N)NC(=O)[C@H](Cc2c[nH]c3ccccc23)NC(=O)[C@H](Cc2c[nH]c3ccccc23)NC(=O)[C@H](CCCNC(=N)N)NC(=O)[C@H](CCCNC(=N)N)NC(=O)[C@H](Cc2c[nH]c3ccccc23)NC(=O)[C@H](Cc2c[nH]c3ccccc23)NC1=O [HILR-025] (cyclo(PRGPRPVWWRRWWRRWW))
- cell killing ability with 2-DOG [5]: enhanced by co-administration with 2-DOG
- cell morphology [6]: Ring-shaped morphology
- pIC50 [7]: 4.80
- pIC50 [2]: 4.82

Compound: CC(C)[C@@H]1NC(=O)[C@@H]2CCCN2C(=O)[C@H](CCC(=O)O)NC(=O)[C@@H]2CCCN2C(=O)CNC(=O)[C@H](CCC(=O)O)NC(=O)[C@@H]2CCCN2C(=O)[C@H](Cc2c[nH]c3ccccc23)NC(=O)[C@H](Cc2c[nH]c3ccccc23)NC(=O)[C@H](CCCNC(=N)N)NC(=O)[C@H](CCCNC(=N)N)NC(=O)[C@H](Cc2c[nH]c3ccccc23)NC(=O)[C@H](Cc2c[nH]c3ccccc23)NC(=O)[C@H](CCCNC(=N)N)NC(=O)[C@H](CCCNC(=N)N)NC(=O)[C@H](Cc2c[nH]c3ccccc23)NC(=O)[C@H](Cc2c[nH]c3ccccc23)NC1=O [HILR-D-02] (cyclo(PEGPEPVWWRRWWRRWW))
- pIC50 [2]: 4.42

Compound: Cyc-[AAGPGGPRGPRPGGPGAA] (cyclic; cyclic peptide; (1)..(18) cyclic peptide) [SEQ ID NO: 9]
- bio-activity of cyclic peptide (active / inactive) [3]: SEQ ID NO: 9: Cyc-[AAGPGGPRGPRPGGPGAA]INACTIVE

Compound: Cyc-[GGGGGGPRGPRPGGGGGG] [SEQ ID NO: 8] (cyclic; cyclic peptide; (1)..(18) cyclic peptide)
- bio-activity of cyclic peptide (active / inactive) [3]: SEQ ID NO: 8: Cyc-[GGGGGGPRGPRPGGGGGG]INACTIVE

Compound: Cyc-[PRGPRPvalklalkalal] [THR79]
- selective killing of human cancer cell lines [3]: selectively killed a wide range of human cancer cell lines

Compound: CC(C)[C@@H]1NC(=O)[C@@H]2CCCN2C(=O)[C@H](CCS(=O)(=O)O)NC(=O)[C@@H]2CCCN2C(=O)CNC(=O)[C@H](CCS(=O)(=O)O)NC(=O)[C@@H]2CCCN2C(=O)[C@H](Cc2c[nH]c3ccccc23)NC(=O)[C@H](Cc2c[nH]c3ccccc23)NC(=O)[C@H](CCCNC(=N)N)NC(=O)[C@H](CCCNC(=N)N)NC(=O)[C@H](Cc2c[nH]c3ccccc23)NC(=O)[C@H](Cc2c[nH]c3ccccc23)NC(=O)[C@H](CCCNC(=N)N)NC(=O)[C@H](CCCNC(=N)N)NC(=O)[C@H](Cc2c[nH]c3ccccc23)NC(=O)[C@H](Cc2c[nH]c3ccccc23)NC1=O [HILR-D-06] (cyclo(P[Abu(4-SO3H)]GP[Abu(4-SO3H)]PVWWRRWWRRWW))
- pIC50 [2]: 4.60

Compound: Cyc-[GGGGGGPRGPRPGGGGGG] [SEQ ID NO: 7] (cyclic; cyclic peptide; (1)..(18) cyclic peptide)
- bio-activity of cyclic peptide (active / inactive) [3]: SEQ ID NO: 7: Cyc-[GGGGGGPRGPRPGGGGGG]INACTIVE

Compound: -Pro-Glu-Gly-Pro-Glu-Pro- (PEGPEP; not fully specified; printed as -Pro-Glu-Gly-Pro-Glu-Pro-) [anionic hexapeptide, comparative peptide]
- activity of anionic hexapeptide ([3]; linear hexapeptide, earlier study): inactive

Compound: cyclo-[Pro-Hca-Gly-Pro-Hca-Pro-Val-Trp-Trp-Gpa-Gpa-Trp-Trp-Gpa-Gpa-Trp-Trp] (cyclo(P[Abu(4-SO3H)]GP[Abu(4-SO3H)]PVWW[Phe(4-guanidino)][Phe(4-guanidino)]WW[Phe(4-guanidino)][Phe(4-guanidino)]WW); SMILES CC(C)[C@@H]1NC(=O)[C@@H]2CCCN2C(=O)[C@H](CCS(=O)(=O)O)NC(=O)[C@@H]2CCCN2C(=O)CNC(=O)[C@H](CCS(=O)(=O)O)NC(=O)[C@@H]2CCCN2C(=O)[C@H](Cc2c[nH]c3ccccc23)NC(=O)[C@H](Cc2c[nH]c3ccccc23)NC(=O)[C@H](Cc2ccc(NC(=N)N)cc2)NC(=O)[C@H](Cc2ccc(NC(=N)N)cc2)NC(=O)[C@H](Cc2c[nH]c3ccccc23)NC(=O)[C@H](Cc2c[nH]c3ccccc23)NC(=O)[C@H](Cc2ccc(NC(=N)N)cc2)NC(=O)[C@H](Cc2ccc(NC(=N)N)cc2)NC(=O)[C@H](Cc2c[nH]c3ccccc23)NC(=O)[C@H](Cc2c[nH]c3ccccc23)NC1=O) [HILR-D-07]
- cell killing ability with 2-DOG [5]: enhanced by co-administration with 2-DOG
- cell morphology [6]: Ring-shaped morphology

Compound: Cyc-[AAAGGGPRGPRPGGGAAA] (cyclic; Cyclic peptide; (1)..(18) cyclic peptide) [SEQ ID NO: 6]
- bio-activity of cyclic peptide (active / inactive) [3]: SEQ ID NO: 6: Cyc-[AAAGGGPRGPRPGGGAAA]INACTIVE
